Read-outs that look alike come from different tables or passages of the source.
Experiments:
[1] = biological target: LMP7 subunit of the immunoproteasome (Homo sapiens, UniProt P28062); details: background, Singh et al 2011; cited from earlier work
[2] = biological target: Beta5 (purified human constitutive proteasome) (Homo sapiens, UniProt P28074); test: Determination of Beta5 activity (fluorescence intensity assay, Suc-LLVY-AMC); assay type: biochemical
Method: Determination of Beta5 Activity:
Measurement of Beta5 inhibition is performed in 384 well format based on fluorescence intensity assay.
(§1) Purified human constitutive proteasome (1.25 nM) and serial diluted compounds in DMSO (range of concentrations from 30 μM to 15 pM) or controls are incubated for 20 minutes or 120 minutes (long incubation) at 25° C. in assay buffer containing 50 mM Tris pH 7.4, 0.03% SDS, 1 mM EDTA and 1% DMSO. The reaction is initiated by the addition of the fluorogenic peptide substrate, Suc-LLVY-AMC (Bachem 1-1395), at a concentration of 40 μM. After 60 minutes of incubation at 37° C., fluorescence intensity is measured at λex=350 nm and λem=450 nm with a fluorescence reader (Perkin Elmer Envision reader or equivalent).
(§2) Unless indicated otherwise the results are obtained after incubation for 20 minutes.

[3] = biological target: LMP7 (purified human immuno proteasome) (Homo sapiens, UniProt P28062); test: Determination of LMP7 activity (fluorescence intensity assay, Suc-LLVY-AMC); assay type: biochemical; details: for Selectivity LMP7 vs Beta5: LMP7 versus Beta5, incubation for 20 minutes
Method: Biological Activity Determination of LMP7 Activity:
Measurement of LMP7 inhibition is performed in 384 well format based on fluorescence intensity assay.
as §1, with “immuno” for “constitutive”, “(0.25” for “(1.25”
as §2

[4] = incubation for 20 minutes at 25° C., concentrations 30 μM to 15 pM, read-out: Beta5 IC50
[5] = incubation for 20 minutes at 25° C., concentrations 30 μM to 15 pM, read-out: LMP7 IC50

Row | SMILES | IC50 [2, 4] [M] | Selectivity LMP7 vs Beta5 [3] | IC50 [3, 5] [M] | IC50 ([2]; long incubation: 120 min at 25° C., read-out: Beta5 IC50 (M) (long)) | IC50 ([3]; long incubation: 120 min at 25° C., read-out: LMP7 IC50 (M) (long)) | selectivity for the LMP7 subunit of the immunoproteasome [1] [fold]
1 | CC1=C(C(=O)N[C@H](C)C(=O)N[C@@H](Cc2c[nH]c3ccccc23)C(=O)N[C@@H](Cc2ccccc2)C(=O)[C@@]2(C)CO2)Cc2ccccc21 [PR-924] |  |  |  |  |  | 100
2 | O=C(N[C@@H](C[C@@H]1COc2ccccc21)B(O)O)[C@@]12CC[C@@H](O1)c1ccccc12 [compound 18, [(1R)-2-[(3S)-2,3-dihydro-1-benzofuran-3-yl]-1-{[(1S,8R)-11-oxatricyclo[6.2.1.0^2,7]undeca-2(7),3,5-trien-1-yl]formamido}ethyl]boronic acid] | 5e-06 to 3e-05 | +++++ (Selectivity ≥700) | < 5e-08 |  |  | 
3 | Cc1cccc2c(C[C@H](NC(=O)[C@]34CC[C@H](O3)c3ccccc34)B(O)O)coc12 [compound 19, [(1R)-2-(7-methyl-1-benzofuran-3-yl)-1-{[(1R,8S)-11-oxatricyclo[6.2.1.0^2,7]undeca-2,4,6-trien-1-yl]formamido}ethyl]boronic acid] | 5e-06 to 3e-05 | +++++ (Selectivity ≥700) | < 5e-08 |  |  | 
4 | C[C@]12CC[C@](C(=O)N[C@@H](C[C@@H]3COc4ccccc43)B(O)O)(O1)c1ccccc12 [compound 21, [(1R)-2-[(3S)-2,3-dihydro-1-benzofuran-3-yl]-1-{[(1S,8R)-8-methyl-11-oxatricyclo[6.2.1.0^2,7]undeca-2,4,6-trien-1-yl]formamido}ethyl]boronic acid] | 5e-06 to 3e-05 | +++++ (Selectivity ≥700) | < 5e-08 |  |  | 
5 | C[C@@]12CC[C@@](C(=O)N[C@@H](C[C@@H]3COc4ccccc43)B(O)O)(O1)c1ccccc12 [compound 23, [(1R)-2-[(3S)-2,3-dihydro-1-benzofuran-3-yl]-1-{[(1R,8S)-8-methyl-11-oxatricyclo[6.2.1.0^2,7]undeca-2,4,6-trien-1-yl]formamido}ethyl]boronic acid] | 5e-06 to 3e-05 | +++++ (Selectivity ≥700) | < 5e-08 |  |  | 

Continued, in another order:

Row | IC50 [2, 4] [M] | Selectivity LMP7 vs Beta5 [3] | IC50 [3, 5] [M] | IC50 ([2]; long incubation: 120 min at 25° C., read-out: Beta5 IC50 (M) (long)) | IC50 ([3]; long incubation: 120 min at 25° C., read-out: LMP7 IC50 (M) (long)) | SMILES | selectivity for the LMP7 subunit of the immunoproteasome [1] [fold]
6 | 5e-06 to 3e-05 | ++ (100 ≤ Selectivity < 300) | < 5e-08 |  |  | O=C(N[C@@H](Cc1coc2ccccc12)B(O)O)[C@H]1C2C(=O)N(C3CC3)C[C@]23C=C[C@H]1O3 (stereo partly drawn) [compound 17, [(1R)-2-(1-benzofuran-3-yl)-1-{[(1S,6S,7R)-3-cyclopropyl-4-oxo-10-oxa-3-azatricyclo[5.2.1.0^1,5]dec-8-en-6-yl]formamido}ethyl]boronic acid] | 
7 | 5e-06 to 3e-05 | ++++ (500 ≤ Selectivity < 700) | < 5e-08 |  |  | Cc1cccc2c(C[C@H](NC(=O)[C@@]34CC[C@@H](O3)c3ccccc34)B(O)O)coc12 [compound 20, [(1R)-2-(7-methyl-1-benzofuran-3-yl)-1-{[(1S,8R)-11-oxatricyclo[6.2.1.0^2,7]undeca-2,4,6-trien-1-yl]formamido}ethyl]boronic acid] | 
8 | 5e-06 to 3e-05 | ++ (100 ≤ Selectivity < 300) | < 5e-08 |  |  | O=C(N[C@@H](Cc1coc2ccccc12)B(O)O)C1C[C@H]2O[C@@H]1c1ccccc12 (stereo partly drawn) [compound 22, [(1R)-2-(1-benzofuran-3-yl)-1-{[(1R,8S)-11-oxatricyclo[6.2.1.0^2,7]undeca-2(7),3,5-trien-9-yl]formamido}ethyl]boronic acid] | 
9 | 5e-08 to 5e-07 | + (Selectivity <100) | < 5e-08 |  |  | O=C(N[C@@H](Cc1coc2ccccc12)B(O)O)C1C[C@@H]2O[C@H]1c1ccccc12 (stereo partly drawn) [compound 24, [(1R)-2-(1-benzofuran-3-yl)-1-{[(1S,8R)-11-oxatricyclo[6.2.1.0^2,7]undeca-2(7),3,5-trien-9-yl]formamido}ethyl]boronic acid] | 
10 | 5e-06 to 3e-05 | ++ (100 ≤ Selectivity < 300) | 5e-08 to 5e-07 |  |  | Cc1ccc(C[C@H](NC(=O)[C@@H]2C[C@H]3CC[C@@H]2O3)B(O)O)c(C)c1 [compound 25, [(1R)-2-(2,4-dimethylphenyl)-1-{[(1S,2R,4R)-7-oxabicyclo[2.2.1]heptan-2-yl]formamido}ethyl]boronic acid] | 
11 |  |  |  | > 3e-05 | 5e-07 to 5e-06 | O=C(N[C@@H](CC1CCCCC1)B(O)O)[C@@H]1C[C@H]2CC[C@@H]1O2 [compound 26, [(1R)-2-cyclohexyl-1-{[(1S,2R,4R)-7-oxabicyclo[2.2.1]heptan-2-yl]formamido}ethyl]boronic acid] | 
12 | > 3e-05 |  | 5e-07 to 5e-06 |  |  | O=C(N[C@@H](CCc1ccccc1)B(O)O)[C@@H]1C[C@H]2CC[C@@H]1O2 [compound 27, [(1R)-1-{[(1S,2R,4R)-7-oxabicyclo[2.2.1]heptan-2-yl]formamido}-3-phenylpropyl]boronic acid] | 
13 | > 3e-05 |  | 5e-07 to 5e-06 |  |  | CC(C)C[C@H](NC(=O)[C@@H]1C[C@H]2CC[C@@H]1O2)B(O)O [compound 28, [(1R)-3-methyl-1-{[(1S,2R,4R)-7-oxabicyclo[2.2.1]heptan-2-yl]formamido}butyl]boronic acid] | 
